Test results from patent US6825166B2 (priority 2001, dated 2004).

Columns and labels:
Format in all cases: cell-based
[1] = tested on: hTERT (telomerase-immortalized normal epithelial cell line); experiment: Cytotoxicity (sulforhodamine B growth assay), Protocol A, hTERT cells; settings: 62.5-250 μg/ml added on day of plating, replenished every 3 days
Procedure: (§1) The cell lines selected were KB (human epidermoid carcinoma in the mouth, ATCC #CCL-17), Lu-1 (human lung cancer cell lines, obtained from the Department of Surgical Oncology, University of Illinois, College of Medicine), and hTERT (telomerase-immortalized normal epithelial cell line, Clontech #C4000-1). Various doses of the compounds were evaluated under two treatment protocols. In Protocol A, cultures of each of the KB, Lu and hTERT cells were treated with various doses of the three conjugate compounds from the day of culture onward. In Protocol B, cultures of each of the KB, Lu and hTERT cells were grown to confluence (9 days), and then treated with various doses of the Transferrin-7-paclitaxel conjugate for the duration of the experiment.
(§2) KB was cultured in DMEM (GIBCO) supplemented with 10% fetal bovine serum (FBS), 100 units/ml penicillin G, 100 μg/ml streptomycin sulfate, 0.25 μg/ml amphotericin B (Fungizone) (PSF) (GIBCO) and 1% non-essential amino acids (NAA) (Sigma). Lu was maintained in MEME (GIBCO) supplemented with 10% FBS, PSF, and 1% NAA. hTERT-RPE1 was maintained in DMEM/F-12 (GIBCO) supplemented with 10% FBS+PSF. All cell lines were cultured at 37° C. in 100% humidity with a 5% CO2 atmosphere in air.
(§3) The overall procedures were those as described by Skehan et al., New calorimetric cytotoxicity assay for anticancer-drug screening, J. Natl. Cancer Inst. 82:1107-1112, 1990, and Likhitwitayawuid et al., Cytotoxic and antimalarial bisbenzylisoquinoline alkaloids from Stephania erecta. J. Nat. Prod. 56:30-38, 1993. Cells were typically grown to 60-70% confluence, the medium was changed, and the cells were used for test procedures one day later. Test samples were initially dissolved in sterilized PBS. Serial dilutions were performed using PBS as the solvent, and 10 μl were added to the three wells. PBS (10 μl) was added to control groups. […] The plates were placed on a shaker for 5 minutes, and the absorption was determined at 515 nm using an ELISA plate reader. […]

[2] = tested on: Lu-1 (human lung cancer cell lines); experiment: Cytotoxicity (sulforhodamine B growth assay), Protocol A, Lu cells; settings: 62.5-250 μg/ml added on day of plating, replenished every 3 days
Procedure: as §1, §2, §3

[3] = tested on: KB (human epidermoid carcinoma in the mouth); experiment: Cytotoxicity (sulforhodamine B growth assay), Protocol A, KB cells; settings: for effect on cell growth (optical density versus time): 62.5-250 μg/ml added on day of plating, replenished every 3 days
Procedure: as §1, §2
(§4) The overall procedures were those as described by Skehan et al., New calorimetric cytotoxicity assay for anticancer-drug screening, J. Natl. Cancer Inst. 82:1107-1112, 1990, and Likhitwitayawuid et al., Cytotoxic and antimalarial bisbenzylisoquinoline alkaloids from Stephania erecta. J. Nat. Prod. 56:30-38, 1993. Cells were typically grown to 60-70% confluence, the medium was changed, and the cells were used for test procedures one day later. Test samples were initially dissolved in sterilized PBS. Serial dilutions were performed using PBS as the solvent, and 10 μl were added to the three wells. PBS (10 μl) was added to control groups. After the plates were prepared, cells were removed from the tissue culture flasks by treatment with trypsin, enumerated, and diluted with fresh media. KB (3×10^4 cells/ml), Lu (5×10^4 cell/ml) and hTERT-RPE1 (4×10^4 cells/ml) cells (in 190 μl of media) were added to the 96-well plates. The plates were incubated at 37° C. in 5% CO2, the cells fixed by addition of 100 μl of cold 20% trichloroacetic acid and incubated at 4° C. for 30 min. The plates were washed with tap water (3×) and dried overnight. The fixed cells were stained 30 min by the addition of 100 μl of 0.4% sulforhodamine B (w/v) dissolved in 1% acetic acid. The plates were washed with 1% acetic acid (3×) and allowed to dry. The bound dye was solubilized by the addition of 10 mM unbuffered Tris base, pH 10 (200 μl/well). The plates were placed on a shaker for 5 minutes, and the absorption was determined at 515 nm using an ELISA plate reader. In each case, a zero-day control was performed by adding an equivalent number of cells to several wells of the 96-well plates and incubating at 37° C. for a period of 30 min. The cells were then fixed with tichloroacetic acid and processed as described above.
The first series of studies were conducted with the Transferrin-3-cholesterol conjugate, the Transferrin-rhodamine123 conjugate and the Transferrin-7-paclitaxel conjugate following Protocol A, in which various concentrations of test compounds ranging from 62.5-250 μg/ml were added on the day of plating, and media were replenished every 3 days, maintaining the same concentrations of the test compounds. As shown by plotting optical density versus time, the Transferrin-3-cholesterol conjugate and the Transferrin-rhodamine123 conjugate were not active with any of the cell lines (FIGS. 5, 6, 8, 9, 11, 12).
Therefore, the experiment was repeated with the Transferrin-7-paclitaxel conjugate with lower concentrations.

[4] = tested on: KB (human epidermoid carcinoma in the mouth); experiment: Cytotoxicity (sulforhodamine B growth assay), Protocol B (confluent cultures), KB cells; settings: KB cells grown 9 days before treatment
Procedure: as §1, §2, §3

[5] = tested on: Lu-1 (human lung cancer cell lines); experiment: Cytotoxicity (sulforhodamine B growth assay), Protocol B (confluent cultures), Lu cells; settings: Lu cells grown 9 days before treatment
Procedure: as §1, §2, §3

[6] = tested on: hTERT (telomerase-immortalized normal epithelial cell line); experiment: Cytotoxicity (sulforhodamine B growth assay), Protocol B (confluent cultures), hTERT cells; settings: for effect on cell growth: hTERT cells grown 9 days before treatment
Procedure: as §1, §2, §4

| Substance | effect on cell growth (optical density versus time) [1] | effect on cell growth (optical density versus time) [2] | effect on cell growth (optical density versus time) [3] | effect on cell number ([4]; 0.5 μg/ml) | effect on cell number ([4]; 5 μg/ml) | effect on cell number ([4]; 50 μg/ml) | effect on cell growth ([3]; 0.5 μg/ml) | effect on cell growth ([3]; 5 μg/ml) | effect on cell growth ([3]; 50 μg/ml) | effect on cell number (reduction relative to that at 50 μg/ml) ([5]; 0.5 μg/ml) | effect on cell number (reduction relative to that at 50 μg/ml) ([5]; 5 μg/ml) | effect on cell number ([5]; 50 μg/ml) | selectivity: cancer cells (KB and Lu) versus normal cells (hTERT) ([6]; conclusion from KB, Lu and hTERT results) | effect on cell growth ([6]; 0.5 μg/ml) | effect on cell growth ([6]; 5 μg/ml) | effect on cell growth ([6]; 50 μg/ml) | cell number on day 16 ([6]; hTERT cells, 50 μg/ml, day 16 versus day 9) |
| --- | --- | --- | --- | --- | --- | --- | --- | --- | --- | --- | --- | --- | --- | --- | --- | --- | --- |
| Transferrin-3-cholesterol conjugate: 3-acyl-pentanal cholesterol linked with Transferrin; non-cytotoxic molecule control conjugate | not active | not active | not active | – | – | – | – | – | – | – | – | – | – | – | – | – | – |
| Transferrin-7-paclitaxel conjugate: 7-acyl-pentanal paclitaxel linked to Transferrin through Schiff base; 3 paclitaxel per Transferrin | complete inhibition of cell growth | complete inhibition of cell growth | complete inhibition of cell growth | cell number paralleled that of the control | significant reduction in cell number | significant reduction in cell number | no effect on growth | complete growth inhibition | complete growth inhibition | negated | diminished | significant reduction in cell number | primarily targeting cancer cells (KB and Lu) while not significantly affecting normal cells (hTERT) | Slight increases in cell growth | Slight increases in cell growth | growth was diminished | approximately the same as on day 9 |
| Transferrin-rhodamine123 conjugate: rhodamine123 linked to Transferrin using glutaraldehyde as a linker between free amino groups | not active | not active | not active | – | – | – | – | – | – | – | – | – | – | – | – | – | – |
